PubChem BioAssay (NCI)
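How tested: cells in 96-well plates exposed to compound for 48 hours at five concentrations. TGI is the concentration that stops growth completely.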

Assays:
Assay in all cases: NCI anticancer screen, dose series, 48 h
786-0 renal = system: 786-0 renal
A549 NSCLC = system: A549 NSCLC
ACHN renal = system: ACHN renal
BT-549 breast = system: BT-549 breast
CAKI-1 renal = system: CAKI-1 renal
CCRF-CEM leukemia = system: CCRF-CEM leukemia
COLO 205 colon = system: COLO 205 colon
DU-145 prostate = system: DU-145 prostate
HCC-2998 colon = system: HCC-2998 colon
HCT-116 colon = system: HCT-116 colon
HCT-15 colon = system: HCT-15 colon
HL-60(TB) leukemia = system: HL-60(TB) leukemia
HOP-62 NSCLC = system: HOP-62 NSCLC
HOP-92 NSCLC = system: HOP-92 NSCLC
HS 578T breast = system: HS 578T breast
HT29 colon = system: HT29 colon
IGROV1 ovarian = system: IGROV1 ovarian
K-562 leukemia = system: K-562 leukemia
KM12 colon = system: KM12 colon
LOX IMVI melanoma = system: LOX IMVI melanoma
M14 melanoma = system: M14 melanoma
MALME-3M melanoma = system: MALME-3M melanoma
MCF7 breast = system: MCF7 breast
MDA-MB-231 breast = system: MDA-MB-231 breast
MDA-MB-435 = system: MDA-MB-435
MDA-N = system: MDA-N
MOLT-4 leukemia = system: MOLT-4 leukemia
NCI-H23 lung = system: NCI-H23 lung
NCI-H460 lung = system: NCI-H460 lung
NCI/ADR-RES ovarian = system: NCI/ADR-RES ovarian
OVCAR-3 ovarian = system: OVCAR-3 ovarian
OVCAR-4 ovarian = system: OVCAR-4 ovarian
OVCAR-5 ovarian = system: OVCAR-5 ovarian
PC-3 prostate = system: PC-3 prostate
RPMI-8226 leukemia = system: RPMI-8226 leukemia
RXF 393 renal = system: RXF 393 renal
SF-268 CNS = system: SF-268 CNS
SF-295 CNS = system: SF-295 CNS
SF-539 CNS = system: SF-539 CNS
SK-MEL-2 melanoma = system: SK-MEL-2 melanoma
SK-MEL-28 melanoma = system: SK-MEL-28 melanoma
SK-MEL-5 melanoma = system: SK-MEL-5 melanoma
SK-OV-3 ovarian = system: SK-OV-3 ovarian
SN12C renal = system: SN12C renal
SNB-19 CNS = system: SNB-19 CNS
SNB-75 CNS = system: SNB-75 CNS
SR leukemia = system: SR leukemia
SW-620 colon = system: SW-620 colon
T-47D breast = system: T-47D breast
TK-10 renal = system: TK-10 renal
U251 CNS = system: U251 CNS
UACC-257 melanoma = system: UACC-257 melanoma
UACC-62 melanoma = system: UACC-62 melanoma
UO-31 renal = system: UO-31 renal
A498 renal = system: A498 renal
EKVX NSCLC = system: EKVX NSCLC
NCI-H226 lung = system: NCI-H226 lung
NCI-H522 lung = system: NCI-H522 lung
OVCAR-8 ovarian = system: OVCAR-8 ovarian

Cc1ccc(N=Nc2c(C)c(C#N)c(=S)n(C3OC(CO)C(O)C(O)C3O)c2C)cc1 (stereo unspecified)
TGI (786-0 renal): 83.8 µM
TGI (A549 NSCLC): > 100 µM
TGI (ACHN renal): > 100 µM
TGI (BT-549 breast): 54.4 µM
TGI (CAKI-1 renal): > 100 µM
TGI (CCRF-CEM leukemia): > 100 µM
TGI (COLO 205 colon): > 100 µM
TGI (DU-145 prostate): > 100 µM
TGI (HCC-2998 colon): 58.5 µM
TGI (HCT-116 colon): 62.9 µM
TGI (HCT-15 colon): > 100 µM
TGI (HL-60(TB) leukemia): > 100 µM
TGI (HOP-62 NSCLC): 84.9 µM
TGI (HOP-92 NSCLC): 49.3 µM
TGI (HS 578T breast): > 100 µM
TGI (HT29 colon): > 100 µM
TGI (IGROV1 ovarian): > 100 µM
TGI (K-562 leukemia): > 100 µM
TGI (KM12 colon): > 100 µM
TGI (LOX IMVI melanoma): 45 µM
TGI (M14 melanoma): 41.7 µM
TGI (MALME-3M melanoma): 42.7 µM
TGI (MCF7 breast): > 100 µM
TGI (MDA-MB-231 breast): 60 µM
TGI (MDA-MB-435): 81.2 µM
TGI (MDA-N): > 100 µM
TGI (MOLT-4 leukemia): 48.6 µM
TGI (NCI-H23 lung): > 100 µM
TGI (NCI-H460 lung): 91.3 µM
TGI (NCI/ADR-RES ovarian): > 100 µM
TGI (OVCAR-3 ovarian): 74.4 µM
TGI (OVCAR-4 ovarian): > 100 µM
TGI (OVCAR-5 ovarian): > 100 µM
TGI (PC-3 prostate): > 100 µM
TGI (RPMI-8226 leukemia): > 100 µM
TGI (RXF 393 renal): 93.6 µM
TGI (SF-268 CNS): > 100 µM
TGI (SF-295 CNS): > 100 µM
TGI (SF-539 CNS): > 100 µM
TGI (SK-MEL-2 melanoma): 89.7 µM
TGI (SK-MEL-28 melanoma): 44.7 µM
TGI (SK-MEL-5 melanoma): 35 µM
TGI (SK-OV-3 ovarian): > 100 µM
TGI (SN12C renal): 94.2 µM
TGI (SNB-19 CNS): > 100 µM
TGI (SNB-75 CNS): 73.2 µM
TGI (SR leukemia): > 100 µM
TGI (SW-620 colon): 38.8 µM
TGI (T-47D breast): 46 µM
TGI (TK-10 renal): > 100 µM
TGI (U251 CNS): 52.6 µM
TGI (UACC-257 melanoma): > 100 µM
TGI (UACC-62 melanoma): 29 µM
TGI (UO-31 renal): 98.8 µM

Cc1ccc(NC(=S)N/N=C(/c2ccccc2)c2ccccn2)cc1
TGI (786-0 renal): 13.7 µM
TGI (A498 renal): 11.2 µM
TGI (A549 NSCLC): 15.7 µM
TGI (ACHN renal): 10.3 µM
TGI (BT-549 breast): 19.1 µM
TGI (CAKI-1 renal): 9.48 µM
TGI (COLO 205 colon): 2.89 µM
TGI (DU-145 prostate): 18.8 µM
TGI (EKVX NSCLC): 12.9 µM
TGI (HCC-2998 colon): 21 µM
TGI (HCT-116 colon): 14 µM
TGI (HCT-15 colon): 15.6 µM
TGI (HL-60(TB) leukemia): 2.26 µM
TGI (HOP-62 NSCLC): 17.9 µM
TGI (HOP-92 NSCLC): 8.82 µM
TGI (HS 578T breast): 81.8 µM
TGI (HT29 colon): 20.3 µM
TGI (IGROV1 ovarian): 18.9 µM
TGI (K-562 leukemia): 4.61 µM
TGI (KM12 colon): 13.4 µM
TGI (LOX IMVI melanoma): 14.9 µM
TGI (M14 melanoma): 2.21 µM
TGI (MALME-3M melanoma): 9.23 µM
TGI (MCF7 breast): 15.7 µM
TGI (MDA-MB-231 breast): 20.1 µM
TGI (MDA-MB-435): 14.7 µM
TGI (MDA-N): 19.5 µM
TGI (MOLT-4 leukemia): > 12.3 µM
TGI (NCI-H226 lung): 2.07 µM
TGI (NCI-H23 lung): 26.7 µM
TGI (NCI-H460 lung): 7.05 µM
TGI (NCI-H522 lung): 24.4 µM
TGI (NCI/ADR-RES ovarian): > 80.2 µM
TGI (OVCAR-3 ovarian): 12.5 µM
TGI (OVCAR-4 ovarian): 16.6 µM
TGI (OVCAR-5 ovarian): 2.07 µM
TGI (OVCAR-8 ovarian): 14 µM
TGI (PC-3 prostate): 20.9 µM
TGI (RPMI-8226 leukemia): > 58.4 µM
TGI (RXF 393 renal): 12.7 µM
TGI (SF-268 CNS): 1.32 µM
TGI (SF-295 CNS): 12.7 µM
TGI (SF-539 CNS): 10.3 µM
TGI (SK-MEL-2 melanoma): 15.1 µM
TGI (SK-MEL-28 melanoma): 2.32 µM
TGI (SK-MEL-5 melanoma): 5.08 µM
TGI (SK-OV-3 ovarian): 9.29 µM
TGI (SN12C renal): 10.1 µM
TGI (SNB-19 CNS): 22.2 µM
TGI (SNB-75 CNS): 5.16 µM
TGI (SR leukemia): > 20.5 µM
TGI (SW-620 colon): 20.9 µM
TGI (T-47D breast): 12.6 µM
TGI (TK-10 renal): 2.44 µM
TGI (U251 CNS): 12.9 µM
TGI (UACC-257 melanoma): 1.9 µM
TGI (UACC-62 melanoma): 10.1 µM
TGI (UO-31 renal): 7.68 µM

CC(C)(C)C1=CC(=C(c2ccc(-c3c4nc(c(-c5ccc(C(=C6C=C(C(C)(C)C)C(=O)C(C(C)(C)C)=C6)c6cc(C(C)(C)C)c(O)c(C(C)(C)C)c6)cc5)c5ccc([nH]5)c(-c5ccc(C(=C6C=C(C(C)(C)C)C(=O)C(C(C)(C)C)=C6)c6cc(C(C)(C)C)c(O)c(C(C)(C)C)c6)cc5)c5nc(c(-c6ccc(C(=C7C=C(C(C)(C)C)C(=O)C(C(C)(C)C)=C7)c7cc(C(C)(C)C)c(O)c(C(C)(C)C)c7)cc6)c6ccc3[nH]6)C=C5)C=C4)cc2)c2cc(C(C)(C)C)c(O)c(C(C)(C)C)c2)C=C(C(C)(C)C)C1=O
TGI (786-0 renal): > 100 µM
TGI (A498 renal): > 100 µM
TGI (A549 NSCLC): > 100 µM
TGI (ACHN renal): > 100 µM
TGI (BT-549 breast): > 100 µM
TGI (CAKI-1 renal): > 100 µM
TGI (CCRF-CEM leukemia): > 100 µM
TGI (COLO 205 colon): > 100 µM
TGI (DU-145 prostate): > 100 µM
TGI (EKVX NSCLC): > 100 µM
TGI (HCC-2998 colon): > 100 µM
TGI (HCT-116 colon): > 100 µM
TGI (HCT-15 colon): > 100 µM
TGI (HL-60(TB) leukemia): > 100 µM
TGI (HOP-62 NSCLC): > 100 µM
TGI (HOP-92 NSCLC): > 100 µM
TGI (HS 578T breast): > 100 µM
TGI (HT29 colon): > 100 µM
TGI (IGROV1 ovarian): > 100 µM
TGI (K-562 leukemia): > 100 µM
TGI (KM12 colon): > 100 µM
TGI (LOX IMVI melanoma): > 100 µM
TGI (M14 melanoma): > 100 µM
TGI (MALME-3M melanoma): > 100 µM
TGI (MCF7 breast): > 100 µM
TGI (MDA-MB-231 breast): > 100 µM
TGI (MDA-MB-435): > 100 µM
TGI (MDA-N): > 100 µM
TGI (MOLT-4 leukemia): > 100 µM
TGI (NCI-H226 lung): > 100 µM
TGI (NCI-H23 lung): > 100 µM
TGI (NCI-H460 lung): > 100 µM
TGI (NCI-H522 lung): > 100 µM
TGI (NCI/ADR-RES ovarian): > 100 µM
TGI (OVCAR-3 ovarian): > 100 µM
TGI (OVCAR-4 ovarian): > 100 µM
TGI (OVCAR-5 ovarian): > 100 µM
TGI (OVCAR-8 ovarian): > 100 µM
TGI (PC-3 prostate): > 100 µM
TGI (RPMI-8226 leukemia): > 100 µM
TGI (RXF 393 renal): > 100 µM
TGI (SF-268 CNS): > 100 µM
TGI (SF-295 CNS): > 100 µM
TGI (SF-539 CNS): > 100 µM
TGI (SK-MEL-2 melanoma): > 100 µM
TGI (SK-MEL-28 melanoma): > 100 µM
TGI (SK-MEL-5 melanoma): > 100 µM
TGI (SK-OV-3 ovarian): > 100 µM
TGI (SN12C renal): > 100 µM
TGI (SNB-19 CNS): > 100 µM
TGI (SNB-75 CNS): > 100 µM
TGI (SR leukemia): > 100 µM
TGI (SW-620 colon): > 100 µM
TGI (T-47D breast): > 100 µM
TGI (TK-10 renal): > 100 µM
TGI (U251 CNS): > 100 µM
TGI (UACC-257 melanoma): > 100 µM
TGI (UACC-62 melanoma): > 100 µM
TGI (UO-31 renal): > 100 µM
